Experimental data reported in PubChem BioAssay (NCI).
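Dose response: 5 concentrations. Exposure: 48 h. Format: 96-well plates. Endpoint: linear interpolation; highest concentration if not reached. At the GI50, growth is halved. The concentration for full growth arrest is given as TGI.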 Where a SMILES comes first, the peptide text is derived from it. [ ]: non-standard residue; d: D form. The star is where a group is joined. ξ: configuration not given here. X16 = COC1=CC(=O)N(C(=O)C(O*)C(C)C)C1Cc1ccccc1; ξNMe2Val = CC(C)C(C(=O)*)N(C)C; NMeV = CN[CH](C(=O)O)C(C)C

Assays:
Assay in all cases: growth of human tumour cells (NCI), 48 h
IGROV1 ovarian = system: IGROV1 ovarian
M14 melanoma = system: M14 melanoma
786-0 renal = system: 786-0 renal
CAKI-1 renal = system: CAKI-1 renal
TK-10 renal = system: TK-10 renal
A498 renal = system: A498 renal
T-47D breast = system: T-47D breast
MCF7 breast = system: MCF7 breast
CCRF-CEM leukemia = system: CCRF-CEM leukemia
HS 578T breast = system: HS 578T breast
MDA-N = system: MDA-N

| SMILES | TGI (IGROV1 ovarian) | TGI (M14 melanoma) | TGI (786-0 renal) | TGI (CAKI-1 renal) | TGI (TK-10 renal) | TGI (A498 renal) | TGI (T-47D breast) | TGI (MCF7 breast) | TGI (CCRF-CEM leukemia) | TGI (HS 578T breast) | TGI (MDA-N) | GI50 (MCF7 breast) | GI50 (IGROV1 ovarian) | GI50 (CAKI-1 renal) | GI50 (A498 renal) | GI50 (T-47D breast) | GI50 (CCRF-CEM leukemia) | GI50 (M14 melanoma) | GI50 (TK-10 renal) | GI50 (HS 578T breast) |
| --- | --- | --- | --- | --- | --- | --- | --- | --- | --- | --- | --- | --- | --- | --- | --- | --- | --- | --- | --- | --- |
| CC1=C/C(=C(\c2ccc(N(C)C)cc2)c2ccc([N+](C)(C)C)cc2)C=CC1=[N+](C)C | 26.6 µM | 43 µM | 58.2 µM | 41.1 µM | 14.9 µM | 36.7 µM | – | – | – | – | – | – | – | – | – | – | – | – | – | – |
| [N-]=N[N+]#I1OC(C(F)(F)F)(C(F)(F)F)c2ccccc21 | 32.7 µM | > 100 µM | 31.6 µM | 20.9 µM | 32 µM | 31.8 µM | 27.7 µM | 27.3 µM | 47.2 µM | 37.3 µM | – | – | – | – | – | – | – | – | – | – |
| O=c1c2cc([N+](=O)[O-])ccc2n2n1Cc1ccccc1CC2 | > 100 µM | > 100 µM | > 100 µM | > 100 µM | > 100 µM | > 100 µM | – | > 100 µM | > 100 µM | > 100 µM | > 100 µM | – | – | – | – | – | – | – | – | – |
| Cc1c2c(n3c(nc4ccccc43)c1C#N)N(c1ccc(Cl)cc1)CC2 | > 100 µM | > 100 µM | > 100 µM | > 100 µM | > 100 µM | > 100 µM | – | > 100 µM | > 100 µM | > 100 µM | > 100 µM | – | – | – | – | – | – | – | – | – |
| C1=C2SSC3=CC=C(SSc4ccc(s4)SSC4=CC=C(SSC(=C1)S2)S4)S3 | > 100 µM | > 100 µM | > 100 µM | > 100 µM | > 100 µM | > 100 µM | > 100 µM | > 100 µM | > 100 µM | – | > 100 µM | – | – | – | – | – | – | – | – | – |
| CC(C)(C)C1CC[C@H]2c3c([nH]c4ccc(Br)cc34)[C@H]3C(=O)N(c4ccccc4)C(=O)[C@H]3[C@H]2C1 (stereo partly drawn) | > 100 µM | > 100 µM | 23.6 µM | > 100 µM | > 100 µM | – | – | – | 20.1 µM | – | – | – | – | – | – | – | – | – | – | – |
| c1ccc2[nH]c(-c3nc4ccccc4o3)nc2c1 | > 100 µM | > 100 µM | > 100 µM | – | > 100 µM | > 100 µM | – | – | > 100 µM | – | – | – | – | – | – | – | – | – | – | – |
| CCOC(=O)C(NCc1ccccc1)(NC(=O)c1ccccc1)C(F)(F)F (stereo not drawn) | > 100 µM | > 100 µM | > 100 µM | > 100 µM | > 100 µM | – | > 100 µM | > 100 µM | 89.9 µM | > 100 µM | > 100 µM | – | – | – | – | – | – | – | – | – |
| COC1=CC(=O)N(C(=O)C(OC(=O)C2CCCN2C(=O)C2CCCN2C(=O)C(C(C)C)N(C)C(=O)C(NC(=O)C(C(C)C)N(C)C)C(C)C)C(C)C)C1Cc1ccccc1 (stereo not drawn) (ξNMe2Val-V[NMeV]PP-X16; configuration not given here) | > 4 µM | – | – | > 4 µM | – | 0.165 µM | – | > 4 µM | 0.00744 µM | 0.000903 µM | 0.000275 µM | < 0.0004 µM | < 0.0004 µM | < 0.0004 µM | 0.00643 µM | – | – | – | – | – |
| CN(C)[C@@H]1C(=O)C(C(N)=O)=C(O)[C@@]2(O)C(=O)C3=C(O)c4c(O)cccc4C[C@H]3C[C@@H]12 | 4.8 µM | 3.87 µM | 5.92 µM | 4.3 µM | 7.53 µM | 4.56 µM | – | – | 5.65 µM | – | – | – | – | – | – | – | – | – | – | – |
| CS(=O)(=O)NNS(=O)(=O)c1ccc(Br)cc1 | > 100 µM | > 100 µM | > 100 µM | > 100 µM | > 100 µM | > 100 µM | – | – | > 100 µM | – | – | – | – | – | – | – | – | – | – | – |
| COc1ccc(NC(=S)NN=C(C)c2cccc(C(C)=NNC(=S)Nc3ccc(OC)cc3)n2)cc1 | > 100 µM | > 100 µM | > 100 µM | > 100 µM | > 100 µM | > 100 µM | > 100 µM | – | > 100 µM | > 100 µM | – | – | – | – | – | – | – | – | – | – |
| O=c1[nH]cnc2c1nnn2CCCn1nnc2c(=O)[nH]cnc21 | > 100 µM | > 100 µM | > 100 µM | > 100 µM | > 100 µM | > 100 µM | – | – | > 100 µM | – | – | – | – | – | – | – | – | – | – | – |
| c1cnc2c(c1)-n1cccc1C1(CCOCC1)NN2 | > 100 µM | > 100 µM | > 100 µM | > 100 µM | > 100 µM | > 100 µM | – | – | > 100 µM | – | – | – | – | – | – | – | – | – | – | – |
| COC(=O)/C(=C/c1ccc(OC)cc1)C(C(=O)O)=C(C)C | > 100 µM | > 100 µM | > 100 µM | > 100 µM | > 100 µM | > 100 µM | – | – | > 100 µM | – | – | – | – | – | – | – | – | – | – | – |
| Oc1c(Cl)c2nccnc2c2ccccc12 | > 100 µM | > 100 µM | > 100 µM | – | > 100 µM | > 100 µM | – | – | > 100 µM | – | – | – | – | – | – | – | – | – | – | – |
| C/C(=N\Nc1nc2cc(C)ccc2s1)c1ccccn1 | – | 3.68 µM | 9.59 µM | 9.18 µM | > 64 µM | 10.6 µM | > 89.7 µM | – | > 100 µM | 39 µM | > 100 µM | – | – | – | – | – | – | – | – | – |
| CC(C)(C)C1CCC2c3c([nH]c4ccccc34)C3C(=O)N(c4cc(Br)cc(Br)c4)C(=O)C3C2C1 (stereo not drawn) | > 100 µM | > 100 µM | 18.6 µM | 66.6 µM | 59.2 µM | 68.4 µM | – | 17.5 µM | 25.1 µM | 30.8 µM | > 100 µM | – | – | – | – | – | – | – | – | – |
| O=C(NCc1cn(Cc2cccc(Oc3ccccc3)c2)nn1)c1cccnc1Nc1ccccc1 | > 100 µM | 9.86 µM | – | > 100 µM | 28.4 µM | 8.19 µM | 63.2 µM | > 100 µM | > 100 µM | > 100 µM | – | 3.67 µM | 5.86 µM | 5.45 µM | 1.88 µM | 5.4 µM | 3.34 µM | 2.86 µM | 4.3 µM | 3.68 µM |
| O=C1Nc2ccccc2C(=O)OC(Cc2ccccc2)=Nc2ccccc21 | > 100 µM | > 100 µM | > 100 µM | > 100 µM | > 100 µM | – | > 100 µM | > 100 µM | > 100 µM | – | > 100 µM | – | – | – | – | – | – | – | – | – |
| COc1cc2c(cc1O)[C@H](C)C(c1ccc(Cl)cc1)O2 (stereo partly drawn) | > 100 µM | 55.1 µM | 32 µM | 49.2 µM | 78.8 µM | > 100 µM | – | – | 39 µM | – | – | – | – | – | – | – | – | – | – | – |
| COc1c(C2(c3ccc(F)cc3)SCCCS2)c(=O)c1=O | – | > 100 µM | > 100 µM | > 100 µM | > 100 µM | – | – | > 100 µM | > 100 µM | > 100 µM | > 100 µM | – | – | – | – | – | – | – | – | – |
| On1c(-c2ccccc2)c(-c2c(-c3ccccc3)n(O)c3ccccc23)c2ccccc21 | – | – | 39.7 µM | – | > 100 µM | – | – | – | > 100 µM | – | – | – | – | – | – | – | – | – | – | – |
